# Experimental data: patent US5449612A, “Process for identifying candida by means of chromogenic substances” (Serbio, priority 1990, dated 1995)
# Residues, ends and D or L forms follow the SMILES beside them. *: point of attachment. pNA = O=[N+]([O-])c1ccc(N*)cc1; Boc = CC(C)(C)OC(=O)*
# Assays:
# [1] = test system: Candida krusei; assay: Tests on substrates against Candida krusei, colour reading on buffered gelose; format: cell-based; design: key to Specificity: interference with C. krusei: (a): interference with C. albicans (++++); (b): interference with C. krusei (++); (c): interference with C. tropicalis (++); conditions: for Reading at 24 h: Table IV, medium pH 6.0
# [2] = test system: Candida guillermondii; assay: Tests on substrates against Candida guillermondii; design: Reading at 24 h: key to the marks not given beside the values; conditions: for Reading at 24 h: Table V
# [3] = test system: Candida albicans; assay: Tests on substrates against Candida albicans, colour reading on buffered gelose; format: cell-based; conditions: Table I; medium pH 6.0, YNB, glucose, agar, gentamycin; coloration or fluorescence
# [4] = test system: T. glabrata; assay: Tests on substrates against T. glabrata, colour reading on buffered gelose; format: cell-based, Torulopsis glabrata
# [5] = test system: Candida tropicalis; assay: Tests on substrates against Candida tropicalis, colour reading on buffered gelose; format: cell-based; conditions: for C. TROPICALIS reading at 24 h: Table III, medium pH 6.0; for Reading at 24 h: Table II, medium pH 6.0, YNB, glucose, agar, gentamycin
# [6] = test system: C. albicans; assay: Diagnosis from isolated colonies on gelose 2/5; format: cell-based, Candida albicans; note: key: -: none; +: weak; ++: moderate; +++: intense; ++++: very intense
# [7] = test system: C. krusei; assay: Diagnosis from isolated colonies on gelose 2/5; format: cell-based, Candida krusei
# Experimental: (§1) According to the afore-mentioned best mode of carrying out the invention, a culture medium containing the following ingredients is prepared; it is called gelose 2 below and is buffered to pH 6.0.
# (§2) According to the afore-mentioned best mode of carrying out the invention, a culture medium containing the following ingredients is prepared; it is called gelose 5 below and is buffered to pH 6.0.
# Several isolated strains of C. albicans, C. tropicalis, C. krusei, C. guillermondii, C. pseudotropicalis, C. parapsilosis, C. zeylanoides, T. glabrata and Trichosporon cutaneum were inoculated and incubated on the media of Examples 1 to 5. […] Part of the results obtained has been collated in Table VI below, where the TTC column relates to results of tests undertaken separately on a standard gelose medium containing TTC.
# Several isolated strains of C. albicans, C. tropicalis, C. krusei, C. guillermondii and T. glabrata were inoculated and incubated on the media of Example 2 [containing either the substrate N-Ac-β-D-galactosaminide-PNP of the prior art, or the substrates H-L-PropNA.AcOH (specific for C. albicans), EM-L-Phg-L-ArgpNA.AcOH (specific for T. glabrata) and H-Gly-L-Pro-L-Arg-pNA.2AcOH (specific for C. krusei)]and of Example 5 (containing the substrate H-L-Pro-pNA.AcOH).
# [8] = test system: C. tropicalis; assay: Diagnosis from isolated colonies on gelose 2/5; format: cell-based, Candida tropicalis
# [9] = test system: T. glabrata; assay: Diagnosis from isolated colonies on gelose 2/5; format: cell-based, Torulopsis glabrata; note: key: -: none; +: weak; ++: moderate; +++: intense; ++++: very intense
# [10] = test system: C. pseudotropicalis; assay: Diagnosis from isolated colonies on gelose 2/5; format: cell-based, Candida pseudotropicalis; conditions: Table VI, 2 strains, gelose 2; note: key: -: none; +: weak; ++: moderate; +++: intense; ++++: very intense
# [11] = test system: C. ciferii; assay: Diagnosis from non-isolated colonies on gelose 5; format: cell-based; conditions: Table IX, 1 strain, gelose 5, cycloheximide; note: key: -: none; +: weak; ++: moderate; +++: intense; ++++: very intense
# [12] = test system: Tr. cutaneum; assay: Diagnosis from isolated colonies on gelose 2/5; format: cell-based, Trichosporon cutaneum; conditions: Table VI, 1 strain, gelose 2; note: key: -: none; +: weak; ++: moderate; +++: intense; ++++: very intense
# [13] = test system: Cr. neoformans; assay: Diagnosis from non-isolated colonies on gelose 2/5; format: cell-based, Cryptococcus neoformans; conditions: Table VIII, 1 strain, gelose 2; note: key: -: none; +: weak; ++: moderate; +++: intense; ++++: very intense
# [14] = test system: C. guillermondii; assay: Diagnosis from non-isolated colonies on gelose 2/5; format: cell-based, Candida guillermondii; conditions: 1 strain; note: key: -: none; +: weak; ++: moderate; +++: intense; ++++: very intense
# [15] = test system: Tr. cutaneum; assay: Diagnosis from non-isolated colonies on gelose 2/5; format: cell-based, Trichosporon cutaneum; conditions: 2 strains
# [16] = test system: C. albicans; assay: Diagnosis from non-isolated colonies on gelose 2/5; format: cell-based, Candida albicans
# [17] = test system: C. pseudotropicalis; assay: Diagnosis from non-isolated colonies on gelose 2/5; format: cell-based, Candida pseudotropicalis; note: key: -: none; +: weak; ++: moderate; +++: intense; ++++: very intense
# [18] = test system: C. zeylanoides; assay: Diagnosis from non-isolated colonies on gelose 5; format: cell-based, Candida zeylanoides; conditions: Table IX, 1 strain, gelose 5, cycloheximide; note: key: -: none; +: weak; ++: moderate; +++: intense; ++++: very intense
# [19] = test system: C. tropicalis; assay: Diagnosis from non-isolated colonies on gelose 2/5; format: cell-based, Candida tropicalis; conditions: 1 strain; note: key: -: none; +: weak; ++: moderate; +++: intense; ++++: very intense
# [20] = test system: C. parapsilosis; assay: Diagnosis from isolated colonies on gelose 2/5; format: cell-based, Candida parapsilosis; conditions: Table VI, 5 strains, gelose 2; note: key: -: none; +: weak; ++: moderate; +++: intense; ++++: very intense
# [21] = test system: T. glabrata; assay: Diagnosis from non-isolated colonies on gelose 2/5; format: cell-based, Torulopsis glabrata; conditions: 8 strains; note: key: -: none; +: weak; ++: moderate; +++: intense; ++++: very intense
# [22] = test system: C. zeylanoides; assay: Diagnosis from isolated colonies on gelose 2/5; format: cell-based, Candida zeylanoides; conditions: Table VI, 1 strain, gelose 2; note: key: -: none; +: weak; ++: moderate; +++: intense; ++++: very intense
# [23] = test system: C. krusei; assay: Diagnosis from non-isolated colonies on gelose 2/5; format: cell-based, Candida krusei; conditions: non-isolated colonies
# Experimental: as §1, §2
# A mixture of several non-isolated strains of C. albicans, C. tropicalis, C. krusei, C. guillermondii, C. pseudotropicalis, C. parapsilosis, Cryptococcus neoformaas, Torulopsis glabrata and Trichosporon cutaneum was inoculated and incubated on the culture media according to Examples 1 to 5, containing the substrate N-Ac-β-D-galactosaminide-PNP of the prior art or the substrate H-Pro-pNA.AcOH according to the invention. The results, which were obtained particularly with geloses 2 and 5, are collated in Table VIII below, where the TTC column relates to results of tests undertaken separately on a standard gelose medium containing TTC.
# (§3) A mixture of several non-isolated strains of C. albicans, C. tropicalis, C. krusei, C. guillermondii, C. pseudotropicalis, C. parapsilosis, C. zeylanoides, C. ciferii, C. cerevisiae, Torulopsis glabrata and Trichosporon cutaneum was inoculated and incubated on the culture media according to Example 5, containing the substrate N-Ac-β-D-galactosaminide-PNP of the prior art or the substrate H-Pro-pNA.AcOH according to the invention.
# [24] = test system: C. guillermondii; assay: Diagnosis from isolated colonies on gelose 2/5; format: cell-based, Candida guillermondii; conditions: Table VI, 2 strains, gelose 2; note: key: -: none; +: weak; ++: moderate; +++: intense; ++++: very intense
# [25] = test system: C. cerevisiae; assay: Diagnosis from non-isolated colonies on gelose 5; format: cell-based; conditions: Table IX; non-isolated colonies, 1 strain; gelose 5, cycloheximide
# Experimental: as §2, §3
# [26] = test system: C. parapsilosis; assay: Diagnosis from non-isolated colonies on gelose 2/5; format: cell-based, Candida parapsilosis; note: key: -: none; +: weak; ++: moderate; +++: intense; ++++: very intense
# [27] = Table VII, isolated colonies, 6 strains, gelose 2
# [28] = Table IX, gelose 5, cycloheximide
# [29] = Table VI, isolated colonies, 4 strains, gelose 2
# [30] = Table VII, isolated colonies, 9 strains, gelose 2
# [31] = Table IX, 1 strain, gelose 5, cycloheximide
compound,measurement,setting,value
CC(C)(C)OC(=O)NCC(=O)N1CCC[C@H]1C(=O)N[C@@H](CCCNC(=N)N)C(=O)Nc1ccc([N+](=O)[O-])cc1 [Boc-Gly-L-Pro-L-Arg-pNA.AcOH] (Boc-Gly-Pro-Arg-pNA),Reading at 24 h,[1],-
same,Specificity: interference with C. guillermondii,[2]; Table I,(d)
same,Reading at 24 h,[3],++
same,Specificity: interference with T. glabrata,[4],(e) and (f)
same,T. GLABRATA reading at 24 h,[4]; pH 6,+++
same,Specificity: interference with C. tropicalis,[5]; Table I,(b)
same,C. TROPICALIS reading at 24 h,[5],+
same,Specificity: interference with C. tropicalis,[5]; Table IV,(b)
CC(C)C[C@H](NC(=O)OC(C)(C)C)C(=O)N[C@@H](CO)C(=O)N[C@H](C(=O)N[C@@H](CCCNC(=N)N)C(=O)Nc1ccc([N+](=O)[O-])cc1)[C@@H](C)O [Boc-L-Leu-L-Ser-L-Thr-L-Arg-pNA.AcOH] (Boc-LSTR-pNA),Reading at 24 h,[2],++++
same,Specificity: interference with C. tropicalis,[5]; Table V,(c)
N=C(N)NCCC[C@H](NC(=O)[C@@H]1CCCN1C(=O)CNC(=O)CN)C(=O)Nc1ccc([N+](=O)[O-])cc1 [H-Gly-Gly-L-Pro-L-Arg-pNA.2AcOH] (H-GGPR-pNA),Reading at 24 h,[1],++
same,T. GLABRATA reading at 24 h,[4]; pH 6,+
same,C. TROPICALIS reading at 24 h,[5],+
same,Specificity: interference with C. tropicalis,[5]; Table IV,(d)
N=C(N)NCCC[C@H](NC(=O)[C@@H]1CCCN1C(=O)CN)C(=O)Nc1ccc([N+](=O)[O-])cc1 [H-Gly-L-Pro-L-Arg-pNA.2AcOH] (H-Gly-Pro-Arg-pNA),Specificity: interference with C. krusei,[1]; Table I,(c)
same,Reading at 24 h,[1],++++
same,Reading at t = 24 h,[6],-
same,Reading at t = 24 h,[7],+++
same,Reading at 24 h,[3],++++
same,T. GLABRATA reading at 24 h,[4]; pH 6,-
same,Reading at t = 24 h,[8],++
same,Specificity: interference with C. tropicalis,[5]; Table I,(b)
same,Reading at 24 h,[5],++++
same,C. TROPICALIS reading at 24 h,[5],++++
same,Specificity: interference with C. tropicalis,[5]; Table IV,(a)
same,Reading at t = 24 h,[9],-
N=C(N)NCCC[C@H](NC(=O)[C@@H]1CCCN1C(=O)[C@@H]1CCCN1)C(=O)Nc1ccc([N+](=O)[O-])cc1 [H-L-Pro-L-Pro-L-Arg-pNA.2AcOH] (H-Pro-Pro-Arg-pNA),Reading at 24 h,[1],-
same,Reading at 24 h,[3],+++
same,Specificity: interference with C. tropicalis,[5]; Table I,(b)
same,Reading at 24 h,[5],++++
same,Specificity: interference with C. tropicalis,[5]; Table IV,(a)
"CC(=O)N[C@H]1[C@H](Oc2ccc([N+](=O)[O-])cc2)O[C@H](CO)[C@H](O)[C@@H]1O [NAc-D-galactosaminide-PNP, N-Ac-β-D-galactosaminide-PNP, reference compound]",Reading at t = 24 h,[10],-
same,Reading at t = 24 h,[11],-
same,Reading at t = 24 h,"[6]; Table VI, isolated colonies, 10 strains, gelose 2",++++
same,Reading at t = 24 h,[6]; [27],+++
same,Reading at t = 24 h,[12],++
same,Reading at t = 24 h,[13],-
same,Reading at t = 24 h,[14]; [28],-
same,Reading at t = 24 h,"[14]; Table VIII, gelose 2",-
same,Reading at t = 24 h,[15]; [28],-
same,Reading at t = 24 h,"[15]; Table VIII, gelose 2",- result for 1 strain and +++ result for the other strain
same,Reading at t = 24 h,"[16]; Table IX, 89 strains, gelose 5, cycloheximide",++++ and negative for 2 out of 89 strains
same,Reading at t = 24 h,"[16]; Table VIII, 13 strains, gelose 2",++++
same,Reading at t = 24 h,[7]; [29],-
same,Reading at t = 24 h,[7]; [27],-
same,Reading at t = 24 h,"[17]; Table IX, 2 strains, gelose 5, cycloheximide",-
same,Reading at t = 24 h,"[17]; Table VIII, 1 strain, gelose 2",-
same,Reading at t = 24 h,[18],-
same,Reading at t = 24 h,[19]; [28],-
same,Reading at t = 24 h,"[19]; Table VIII, gelose 2",-
same,Reading at t = 24 h,[20],-
same,Reading at t = 24 h,[21]; [28],-
same,Reading at t = 24 h,"[21]; Table VIII, gelose 2",-
same,Reading at t = 24 h,[22],-
same,Reading at t = 24 h,[8]; [29],3 gave the result - and 1 the result ++
same,Reading at t = 24 h,[8]; [30],positive (++) for only 1 of the 9 strains tested and negative
same,Reading at t = 24 h,[23]; [31],-
same,Reading at t = 24 h,"[23]; Table VIII, 6 strains, gelose 2",-
same,Reading at t = 24 h,[24],-
same,Reading at t = 24 h,[25],-
same,Reading at t = 24 h,[9]; [29],-
same,Reading at t = 24 h,[9]; [30],-
same,Reading at t = 24 h,[26]; [31],-
same,Reading at t = 24 h,"[26]; Table VIII, 2 strains, gelose 2",-
EM-L-Phg-L-Arg-pNA.AcOH,Reading at t = 24 h,[6]; [27],-
same,Reading at t = 24 h,[7]; [27],-
same,T. GLABRATA reading at 24 h,"[4]; Table III, medium pH 6.0",++++
same,hydrolysis by the strains of C. tropicalis,"[8]; Example 7, isolated strains, gelose 2",hydrolyzed
same,Reading at t = 24 h,[8]; [30],++
same,C. TROPICALIS reading at 24 h,[5],+++
same,Reading at t = 24 h,[9]; [30],+++
H-L-ONC-L-Arg-pNA.AcOH,Reading at 24 h,[1],++
same,Specificity: interference with C. krusei,[1]; Table V,(b)
same,Specificity: interference with C. guillermondii,[2]; Table IV,(e)
same,Reading at 24 h,[2],++++
